# pIC50: −log10 of the molar value.
# Molecular target: T1, CDK2 (Homo sapiens, UniProt P24941)
# T1 construct: High-Throughput Measurement of Cellular Endogenous CDK2; endogenous in cells; host or cells: OVCAR3
# Test: Inhibition of CDK2: phospho-Rb (S807/811) HTRF measurement in OVCAR3 cells, 24 h
# Type: cell-based
# Details: 24 h compound treatment, read-out: pRB_OVCAR3_24h
# Summary of the method: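 IC50 came from a four-parameter fit of DMSO-normalized TR-FRET ratios (665/620 nm) reporting phospho-Rb S807/811. Lysates were taken from OVCAR3 cultures treated 24 h with compound (0.3 to 10,000 nM) and incubated 4 h at room temperature with the antibody pair.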
row,Compound,pIC50
1,"Cn1nc(N2CCC(=O)NC2=O)c2ccc(N3CCC(CN4C5CCC4CN(c4cccc(S(=O)(=O)N6CCC(Nc7ncc(Cl)cn7)CC6)c4)C5)CC3)cc21 [Example 166, 1-(6-(4-((3-(3-((4-((5-chloropyrimidin-2-yl)amino)piperidin-1-yl)sulfonyl)phenyl)-3,8-diazabicyclo[3.2.1]octan-8-yl)methyl)piperidin-1-yl)-1-methyl-1H-indazol-3-yl)dihydropyrimidine-2,4(1H,3H)-dione]",< 5.60
2,"Cn1nc(N2CCC(=O)NC2=O)c2ccc(C#CCN3CCN(c4cccc(S(=O)(=O)N5CCC(Nc6ncc(C(F)(F)F)cn6)CC5)c4)CC3)cc21 [Example 230, 1-(1-methyl-6-(3-(4-(3-((4-((5-(trifluoromethyl)pyrimidin-2-yl)amino)piperidin-1-yl)sulfonyl)phenyl)piperazin-1-yl)prop-1-yn-1-yl)-1H-indazol-3-yl)dihydropyrimidine-2,4(1H,3H)-dione]",5.60 to 6.30
3,"Cn1nc(N2CCC(=O)NC2=O)c2ccc(C3CCN(C[C@H]4CCCCN4c4cccc(S(=O)(=O)N5CCC(Nc6ncc(OC(F)F)cn6)CC5)c4)CC3)cc21 [Example 260, (R)-1-(6-(1-((1-(3-((4-((5-(difluoromethoxy)pyrimidin-2-yl)amino)piperidin-1-yl)sulfonyl)phenyl)piperidin-2-yl)methyl)piperidin-4-yl)-1-methyl-1H-indazol-3-yl)dihydropyrimidine-2,4(1H,3H)-dione]",6.30 to 7.00
4,"O=C1CCC(N2C(=O)c3cc(F)c(N4CCN(Cc5cccc(S(=O)(=O)N6CCC(Nc7ncc(C(F)(F)F)cn7)CC6)c5)CC4)cc3C2=O)C(=O)N1 (stereo not drawn) [Example 72, 2-(2,6-dioxopiperidin-3-yl)-5-fluoro-6-(4-(3-((4-((5-(trifluoromethyl)pyrimidin-2-yl)amino)piperidin-1-yl)sulfonyl)benzyl)-piperazin-1-yl)isoindoline-1,3-dione]",5.60 to 6.30
5,"Cn1c(=O)n(C2CCC(=O)NC2=O)c2cccc(C3CCN(Cc4cc(S(=O)(=O)N5CCC(Nc6ncc(OC(F)F)cn6)CC5)ccc4C#N)CC3)c21 (stereo not drawn) [Example 196, 4-((4-((5-(difluoromethoxy)pyrimidin-2-yl)amino)piperidin-1-yl)sulfonyl)-2-((4-(1-(2,6-dioxopiperidin-3-yl)-3-methyl-2-oxo-2,3-dihydro-1H-benzo[d]imidazol-4-yl)piperidin-1-yl)methyl)benzonitrile]",6.30 to 7.00
6,"O=C1CCN(c2cncc3c(C4CCN(CC5CCN(c6cccc(S(=O)(=O)N7CCC(Nc8ncc(Cl)cn8)CC7)c6)CC5)CC4)cccc23)C(=O)N1 [Example 194, 1-(8-(1-((1-(3-((4-((5-chloropyrimidin-2-yl)amino)piperidin-1-yl)sulfonyl)phenyl)piperidin-4-yl)methyl)piperidin-4-yl)isoquinolin-4-yl)dihydropyrimidine-2,4(1H,3H)-dione]",6.30 to 7.00
7,"Cn1nc(N2CCC(=O)NC2=O)c2ccc(N3CCC(CN4CC5CCC(C4)N5c4cccc(S(=O)(=O)N5CCC(Nc6ncc(Cl)cn6)CC5)c4)CC3)cc21 [Example 191, 1-(6-(4-((8-(3-((4-((5-chloropyrimidin-2-yl)amino)piperidin-1-yl)sulfonyl)phenyl)-3,8-diazabicyclo[3.2.1]octan-3-yl)methyl)piperidin-1-yl)-1-methyl-1H-indazol-3-yl)dihydropyrimidine-2,4(1H,3H)-dione]",< 5.60
8,"Cn1nc(N2CCC(=O)NC2=O)c2ccc(C3CCN(Cc4cnn(-c5cccc(S(=O)(=O)N6CCC(Nc7ncc(Cl)cn7)CC6)c5)c4)CC3)cc21 [Example 131, 1-(6-(1-((1-(3-((4-((5-chloropyrimidin-2-yl)amino)piperidin-1-yl)sulfonyl)phenyl)-1H-pyrazol-4-yl)methyl)piperidin-4-yl)-1-methyl-1H-indazol-3-yl)dihydropyrimidine-2,4(1H,3H)-dione]",7.00 to 9.00
9,"Cn1nc(N2CCC(=O)NC2=O)c2ccc(N3CCN(Cc4cccc(S(=O)(=O)[C@H]5CC[C@H](Nc6ncc(Cl)cn6)CC5)c4)CC3)cc21 [Example 67, 1-(6-(4-(3-(((1r,4r)-4-((5-chloropyrimidin-2-yl)amino)cyclohexyl)sulfonyl)benzyl)piperazin-1-yl)-1-methyl-1H-indazol-3-yl)dihydropyrimidine-2,4(1H,3H)-dione]",< 5.60
10,"COc1cnc(NC2CCN(S(=O)(=O)c3cccc(CN4CCC(c5ccc6c(N7CCC(=O)NC7=O)nn(C)c6c5)CC4)c3)CC2)nc1 [Example 57, 1-(6-(1-(3-((4-((5-methoxypyrimidin-2-yl)amino)piperidin-1-yl)sulfonyl)benzyl)-piperidin-4-yl)-1-methyl-1H-indazol-3-yl)dihydropyrimidine-2,4(1H,3H)-dione]",5.60 to 6.30
11,"Cn1nc(N2CCC(=O)NC2=O)c2ccc(C3CCN(Cc4ccc(C5CCN(S(=O)(=O)N6CCC(Nc7ncc(Cl)cn7)CC6)CC5)cc4)CC3)cc21 [Example 139, 1-(6-(1-(4-(1-((4-((5-chloropyrimidin-2-yl)amino)piperidin-1-yl)sulfonyl)piperidin-4-yl)benzyl)piperidin-4-yl)-1-methyl-1H-indazol-3-yl)dihydropyrimidine-2,4(1H,3H)-dione]",< 5.60

# More lines, now with the values ahead:
row,pIC50,Compound
1,7.00 to 9.00,"Cn1nc(N2CCC(=O)NC2=O)c2ccc(C3CCN(CC4CCN(c5cc(S(=O)(=O)N6CCC(Nc7ncc(C(F)(F)F)cn7)CC6)ccc5F)CC4)CC3)cc21 [Example 142, 1-(6-(1-((1-(2-fluoro-5-((4-((5-(trifluoro-methyl)pyrimidin-2-yl)amino)piperidin-1-yl)sulfonyl)phenyl)piperidin-4-yl)methyl)-piperidin-4-yl)-1-methyl-1H-indazol-3-yl)dihydropyrimidine-2,4(1H,3H)-dione]"
2,6.30 to 7.00,"Cn1nc(N2CCC(=O)NC2=O)c2ccc(C3CCN(C[C@H]4CCCN(c5cccc(S(=O)(=O)N6CCC(Nc7ncc(OC(F)F)cn7)CC6)c5)C4)CC3)cc21 [Example 258, (R)-1-(6-(1-((1-(3-((4-((5-(difluoromethoxy)pyrimidin-2-yl)amino)piperidin-1-yl)sulfonyl)phenyl)piperidin-3-yl)methyl)piperidin-4-yl)-1-methyl-1H-indazol-3-yl)dihydropyrimidine-2,4(1H,3H)-dione]"
3,< 5.60,"Cn1nc(N2CCC(=O)NC2=O)c2ccc(C3CCN(CC4CCN(c5cccc(S(=O)(=O)N6CC7(CC(Nc8ncc(C(F)(F)F)cn8)C7)C6)c5)CC4)CC3)cc21 [Example 172, 1-(1-methyl-6-(1-((1-(3-((6-((5-(trifluoromethyl)pyrimidin-2-yl)amino)-2-azaspiro[3.3]heptan-2-yl)sulfonyl)phenyl)piperidin\-4-yl)methyl)piperidin-4-yl)-1H-indazol-3-yl)dihydropyrimidine-2,4(1H,3H)-dione]"
4,5.60 to 6.30,"Cn1nc(C2CCC(=O)NC2=O)c2ccc(C3CCN(CC4CCN(c5cccc(S(=O)(=O)N6CCC(Nc7ncc(Cl)cn7)CC6)c5)CC4)CC3)cc21 (stereo not drawn) [Example 246, 3-(6-(1-((1-(3-((4-((5-chloropyrimidin-2-yl)amino)piperidin-1-yl)sulfonyl)phenyl)piperidin-4-yl)methyl)piperidin-4-yl)-1-methyl-1H-indazol-3-yl)piperidine-2,6-dione]"
5,6.30 to 7.00,"Cn1nc(N2CCC(=O)NC2=O)c2ccc(C3CCN(C[C@@H]4CCCCN4c4cccc(S(=O)(=O)N5CCC(Nc6ncc(OC(F)F)cn6)CC5)c4)CC3)cc21 [Example 261, (S)-1-(6-(1-((1-(3-((4-((5-(difluoromethoxy)pyrimidin-2-yl)amino)piperidin-1-yl)sulfonyl)phenyl)piperidin-2-yl)methyl)piperidin-4-yl)-1-methyl-1H-indazol-3-yl)dihydropyrimidine-2,4(1H,3H)-dione]"
6,7.00 to 9.00,"Cn1nc(N2CCC(=O)NC2=O)c2ccc(C3CCN(Cc4cncc(S(=O)(=O)N5CCC(Nc6ncc(C(F)(F)F)cn6)CC5)c4)CC3)cc21 [Example 130, 1-(1-methyl-6-(1-((5-((4-((5-(trifluoro-methyl)pyrimidin-2-yl)amino)piperidin-1-yl)sulfonyl)pyridin-3-yl)methyl)piperidin-4-yl)-1H-indazol-3-yl)dihydropyrimidine-2,4(1H,3H)-dione]"
7,5.60 to 6.30,"Cn1nc(N2CCC(=O)NC2=O)c2ccc(C3CCN(CC4CCN(c5cccc(S(=O)(=O)N6CCC(Nc7ncc(C(F)F)cn7)CC6)c5)CC4)CC3)cc21 [Example 195, 1-(6-(1-((1-(3-((4-((5-(difluoromethyl)pyrimidin-2-yl)amino)piperidin-1-yl)sulfonyl)phenyl)piperidin-4-yl)methyl)piperidin-4-yl)-1-methyl-1H-indazol-3-yl)dihydropyrimidine-2,4(1H,3H)-dione]"
8,< 5.60,"Cn1nc(N2CCC(=O)NC2=O)c2ccc(C3CCN(CC4CCN(c5ccc(C#N)c(S(=O)(=O)N6CCC(Nc7ncc(Cl)cn7)CC6)c5)CC4)CC3)cc21 [Example 161, 2-((4-((5-chloropyrimidin-2-yl)amino)piperidin-1-yl)sulfonyl)-4-(4-((4-(3-(2,4-dioxotetrahydropyrimidin-1(2H)-yl)-1-methyl-1H-indazol-6-yl)piperidin-1-yl)methyl)piperidin-1-yl)benzonitrile]"
9,5.60 to 6.30,"Cn1nc(N2CCC(=O)NC2=O)c2ccc(C3CN(Cc4cccc(S(=O)(=O)N5CCC(Nc6ncc(C(F)(F)F)cn6)CC5)c4)C3)cc21 [Example 49, 1-(1-methyl-6-(1-(3-((4-((5-(trifluoro-methyl)pyrimidin-2-yl)amino)piperidin-1-yl)sulfonyl)benzyl)azetidin-3-yl)-1H-indazol-3-yl)dihydropyrimidine-2,4(1H,3H)-dione]"
10,6.30 to 7.00,"Cn1nc(N2CCC(=O)NC2=O)c2ccc(C3CCN(CC4CCN(c5cccc(S(=O)(=O)N6CCC(Nc7ncc(Cl)cn7)CC6)c5F)CC4)CC3)cc21 [Example 187, 1-(6-(1-((1-(3-((4-((5-chloropyrimidin-2-yl)amino)piperidin-1-yl)sulfonyl)-2-fluorophenyl)piperidin-4-yl)methyl)piperidin-4-yl)-1-methyl-1H-indazol-3-yl)dihydropyrimidine-2,4(1H,3H)-dione]"

# From patent publication US20260167623A1 (NIKANG THERAPEUTICS, INC., priority 2022, published 2026)
